We go through 22 compounds from patent US20140148454A1, “SUBSTITUTED AMINO-ACRYLCARBOXAMIDES AS KCNQ2/3 MODULATORS” (GRÜNENTHAL GMBH, priority 2012, published 2014).

Molecules are shown by their SMILES.

The target of this assay is T1, KCNQ2/3 channels (Homo sapiens, UniProt O43525+O43526).
T1 construct: expressed in transfected cells; host or cells: CHO-K1 cells kept under selection antibiotics
The assay is described as follows: Fluorescence assay using a voltage sensitive dye (fluorimetry). In kind it is cell-based. The conditions noted are these: CHO-K1 cells expressing KCNQ2/3 channels; for Emax: relative to retigabine = 100%, read-out: Fluorimetry % efficacy (retigabine = 100%); for EC50: voltage-sensitive dye, read-out: Fluorimetry EC50/IC50. Here is the method: Method I. Fluorescence Assay Using a Voltage Sensitive Dye (Fluorimetry) […] CHO-K1 cells expressing KCNQ2/3 channels are cultivated adherently at 37° C., 5% CO2 and 95% humidity in cell culture bottles (e.g. 80 cm^2 TC flasks, Nunc) with DMEM-high glucose (Sigma Aldrich, D7777) including 10% FCS (PAN Biotech, e.g. 3302-P270521) or alternatively MEM Alpha Medium (1×, liquid, Invitrogen, #22571), 10% fetal calf serum (FCS) (Invitrogen, #10270-106, heat-inactivated) and the necessary selection antibiotics.
Before being sown out for the measurements, the cells are washed with 1×DPBS buffer Ca^2+/Mg^2+-free (e.g. Invitrogen, #14190-094) and detached from the bottom of the culture vessel by using Accutase (PAA Laboratories, #L11-007) (incubation with Accutase for 15 min at 37° C.). The cell number is determined using a CASY™ cell counter (TCC, Scharfe System). Depending on the optimal density for each individual cell line, 20,000-30,000 cells/well/100 μl are seeded onto 96-well Corning™ CeIIBIND™ assay plates (Flat Clear Bottom Black Polystyrene Microplates, #3340). Freshly seeded cells are then left to settle for one hour at room temperature, followed by incubation for 24 hours at 37° C., 5% CO2 and 95% humidity.
The voltage-sensitive fluorescent dye from the Membrane Potential Assay Kit (Red™ Bulk format part R8123 for FLIPR, MDS Analytical Technologies™) is prepared by dissolving the contents of one vessel Membrane Potential Assay Kit Red Component A in 200 ml of extracellular buffer (ES buffer, 120 mM NaCl, 1 mM KCl, 10 mM HEPES, 2 mM CaCl2, 2 mM MgCl2, 10 mM glucose; pH 7.4). After removal of the nutrient medium, the cells are washed once with 200 μl of ES buffer, then loaded for 45 min at room temperature in 100 μl of dye solution in the dark.
Fluorescence measurements are carried out in a BMG Labtech FLUOstar™, BMG Labtech NOVOstar™ or BMG Labtech POLARstar™ instrument (525 nm excitation, 560 nm emission, Bottom Read mode). After incubation with the dye, 50 μl of the test substances in the desired concentrations, or 50 μl of ES buffer for control purposes, are applied to the wells of the assay plate and incubated for 30 min at room temperature while being shielded from light. The fluorescence intensity of the dye is then measured for 5 min and the fluorescence value F1 of each well is thus determined at a given, constant time. 15 μl of a KCl solution are then added to each well (final concentration of potassium ions 92 mM). The change in fluorescence intensity is subsequently monitored until all the relevant values have been obtained (mainly 5-30 min). At a given time post KCl application, a fluorescence value F2 is determined, in this case at the time of the fluorescence peak.
For calculation, the fluorescence intensity F2 is corrected for the fluorescence intensity F1, and the activity (ΔF/F) of the target compound on the potassium channel is determined as follows:
In order to determine whether a substance has agonistic activity, is determined by adding to the well only the buffer solution instead of the test substance, determining the value F1K of the fluorescence intensity, adding the potassium ions as described above, and measuring a value F2K of the fluorescence intensity. F2K and F1K are then calculated as follows: […]
A substance has an agonistic activity on the potassium channel if it is possible to conclude that a target compound has agonistic activity if Calculations of EC50 and IC50 values are carried out with the aid of ‘Prism v4.0’ software (GraphPad Software™).

Consider `CCSc1nc(N2CCOCC2)nc(C)c1C(=O)NCc1ccc(Cl)cc1` [Example 1, N-[(4-Chlorophenyl)-methyl]-4-ethylsulfanyl-6-methyl-2-morpholin-4-yl-pyrimidine-5-carboxylic acid amide], for which the Emax is 137% and the EC50 amounted to 136 nM.
In the same order, the values of `COc1nc(N2CCOCC2)nc(OC)c1C(=O)NCc1ccc(Cl)cc1` [Example 2, N-[(4-Chlorophenyl)-methyl]-4,6-dimethoxy-2-morpholin-4-yl-pyrimidine-5-carboxylic acid amide] are 147% and 315 nM.
With `CCSc1cc(N2CCOCC2)nc(C)c1C(=O)NCc1ccc(Cl)cc1` [Example 3, N-[(4-Chlorophenyl)-methyl]-4-ethylsulfanyl-2-methyl-6-morpholin-4-yl-pyridine-3-carboxylic acid amide], the Emax was 171% and the EC50 amounted to 564 nM.
`CCOc1cc(N2CCOCC2)nc(C)c1C(=O)NCCCC(C)(C)C` [Example 5, N-(4,4-Dimethyl-pentyl)-4-ethoxy-2-methyl-6-morpholin-4-yl-pyridine-3-carboxylic acid amide]: the Emax worked out at 218% and the EC50 was 1350 nM.
Consider `CC(C)c1nc(N2CCOCC2)cnc1C(=O)NCc1ccc(Cl)cc1` [Example 7, N-[(4-Chlorophenyl)-methyl]-3-isopropyl-5-morpholin-4-yl-pyrazine-2-carboxylic acid amide], for which the Emax was 109% and the EC50 amounted to 482 nM.
On to `CC(C)c1nc(N(C)C2CCOCC2)sc1C(=O)NC(C)c1cccc(OC(F)(F)F)c1` (centres unmarked) [Example 9, 4-Isopropyl-2-(methyl-tetrahydro-pyran-4-yl-amino)-N-[1-[3-(trifluoromethyloxy)-phenyl]ethyl]-thiazole-5-carboxylic acid amide], for which the Emax is 104% and the EC50 came out at 379 nM.
On to `CCSc1nc(N2CCOCC2)nc(C)c1C(=O)NCc1cccc(F)c1` [Example 10, 4-Ethylsulfanyl-N-[(3-fluorophenyl)-methyl]-6-methyl-2-morpholin-4-yl-pyrimidine-5-carboxylic acid amide], for which the Emax came to 165% and the EC50 was 140 nM.
On to `CCSc1cc(N2CCOCC2)nc(C)c1C(=O)NCc1ccc(F)cc1` [Example 12, 4-Ethylsulfanyl-N-[(4-fluorophenyl)-methyl]-2-methyl-6-morpholin-4-yl-pyridine-3-carboxylic acid amide], for which the Emax is 145% and the EC50 came out at 1470 nM.
On to `CCSc1cc(N2CCOCC2)nc(C)c1C(=O)NCCCC(C)(C)C` [Example 13, N-(4,4-Dimethyl-pentyl)-4-ethylsulfanyl-2-methyl-6-morpholin-4-yl-pyridine-3-carboxylic acid amide], for which the Emax was 241% and the EC50 amounted to 319 nM.
For the compound `CCSc1cc(N2CCOC[C@H]2C)nc(C)c1C(=O)NCc1ccc(Cl)cc1` [Example 14, N-[(4-Chlorophenyl)-methyl]-4-ethylsulfanyl-2-methyl-6-[(3R)-3-methyl-morpholin-4-yl]-pyridine-3-carboxylic acid amide], the Emax came out at 176% and the EC50 came out at 194 nM.
On to `CCSc1cc(N2CCOC[C@H]2C)nc(C)c1C(=O)NCCCC(C)(C)C` [Example 15, N-(4,4-Dimethyl-pentyl)-4-ethylsulfanyl-2-methyl-6-[(3R)-3-methyl-morpholin-4-yl]-pyridine-3-carboxylic acid amide], for which the Emax turned out to be 247% and the EC50 is 82 nM.
On to `Cc1nc(N2CCOCC2)cc(C2CC2)c1C(=O)NCc1ccc(Cl)cc1` [Example 16, N-[(4-Chlorophenyl)-methyl]-4-cyclopropyl-2-methyl-6-morpholin-4-yl-pyridine-3-carboxylic acid amide], for which the Emax turned out to be 178% and the EC50 worked out at 1420 nM.
Regarding `Cc1nc(N2CCOCC2)cc(C(C)C)c1C(=O)NCc1ccc(Cl)cc1` [Example 17, N-[(4-Chlorophenyl)-methyl]-4-isopropyl-2-methyl-6-morpholin-4-yl-pyridine-3-carboxylic acid amide], the Emax was found to be 180% and the EC50 came to 499 nM.
For the compound `CCC(C)c1nc(N2CCOCC2)cnc1C(=O)NCc1ccc(Cl)cc1` (centres unmarked) [Example 20, N-[(4-Chlorophenyl)-methyl]-3-(1-methyl-propyl)-5-morpholin-4-yl-pyrazine-2-carboxylic acid amide], the Emax turned out to be 88% and the EC50 turned out to be 217 nM.
As to `CCC(C)c1nc(N2CCOCC2)cnc1C(=O)NCCC1CCCC1` (centres unmarked) [Example 21, N-(2-Cyclopentyl-ethyl)-3-(1-methyl-propyl)-5-morpholin-4-yl-pyrazine-2-carboxylic acid amide], the Emax amounted to 132% and the EC50 was 1050 nM.
On to `CC(C)c1nc(N(C)CC2CCOCC2)sc1C(=O)NC(C)c1cccc(OC(F)(F)F)c1` (centres unmarked) [Example 22, 4-Isopropyl-2-[methyl-(tetrahydro-pyran-4-yl-methyl)-amino]-N-[1-[3-(trifluoromethyloxy)-phenyl]-ethyl]-thiazole-5-carboxylic acid amide], for which the Emax worked out at 78% and the EC50 worked out at 459 nM.
As for `CC(C)c1nc(N(C)C2CCOCC2)sc1C(=O)NCc1ccc(Cl)cc1` [Example 23, N-[(4-Chlorophenyl)-methyl]-4-isopropyl-2-(methyl-tetrahydro-pyran-4-yl-amino)-thiazole-5-carboxylic acid amide], the Emax was determined as 98% and the EC50 was 1140 nM.
For `CC(C)c1nc(N2CCOCC2)sc1C(=O)NCc1ccc(Cl)cc1` [Example 25, N-[(4-Chlorophenyl)-methyl]-4-isopropyl-2-morpholin-4-yl-thiazole-5-carboxylic acid amide] the same measures were 48% and 1260 nM.
Regarding `CC(NC(=O)c1sc(N(C)C2CCOCC2)nc1C(F)(F)F)c1cccc(OC(F)(F)F)c1` (centres unmarked) [Example 35, 2-(Methyl-tetrahydro-pyran-4-yl-amino)-4-(trifluoromethyl)-N-[1-[3-(trifluoromethyloxy)-phenyl]-ethyl]-thiazole-5-carboxylic acid amide], the Emax was found to be 131% and the EC50 came out at 1260 nM.
For the compound `CN(c1nc(C(F)(F)F)c(C(=O)NCc2cccc(OC(F)(F)F)c2)s1)C1CCOCC1` [Example 36, 2-(Methyl-tetrahydro-pyran-4-yl-amino)-4-(trifluoromethyl)-N-[[3-(trifluoromethyloxy)-phenyl]-methyl]-thiazole-5-carboxylic acid amide], the Emax stood at 125% and the EC50 came out at 1100 nM.
In the case of `CN(c1nc(C(F)(F)F)c(C(=O)NCc2ccc(Cl)cc2)s1)C1CCOCC1` [Example 38, N-[(4-Chlorophenyl)-methyl]-2-(methyl-tetrahydro-pyran-4-yl-amino)-4-(trifluoromethyl)-thiazole-5-carboxylic acid amide], the Emax turned out to be 102% and the EC50 is 1260 nM.
For `CC(NC(=O)c1sc(N2CCOCC2)nc1C(F)(F)F)c1cccc(OC(F)(F)F)c1` (centres unmarked) [Example 40, 2-Morpholin-4-yl-4-(trifluoromethyl)-N-[1-[3-(trifluoromethyloxy)-phenyl]ethyl]-thiazole-5-carboxylic acid amide], the Emax was determined as 78% and the EC50 worked out at 1280 nM.
